According to patent US11572590B2, “Methods for evaluating tumor cell spheroids using 3D microfluidic cell culture device” (Dana-Farber Cancer Institute, Inc., priority 2017, dated 2023):
Like-named read-outs stand apart in the source and are kept apart here.

Assays:
Assay in all cases: SelectScreen Kinase Profiling, single point inhibition and IC50 for off-target kinases
Assay type in all cases: biochemical
off-target kinases [1] = target: T1, off-target kinases (Homo sapiens, UniProt O43318); details: MAP3K7/MAP3K7IP1 (TAK1-TAB1), LanthaScreen Binding
T1 sequence (O43318 1-606): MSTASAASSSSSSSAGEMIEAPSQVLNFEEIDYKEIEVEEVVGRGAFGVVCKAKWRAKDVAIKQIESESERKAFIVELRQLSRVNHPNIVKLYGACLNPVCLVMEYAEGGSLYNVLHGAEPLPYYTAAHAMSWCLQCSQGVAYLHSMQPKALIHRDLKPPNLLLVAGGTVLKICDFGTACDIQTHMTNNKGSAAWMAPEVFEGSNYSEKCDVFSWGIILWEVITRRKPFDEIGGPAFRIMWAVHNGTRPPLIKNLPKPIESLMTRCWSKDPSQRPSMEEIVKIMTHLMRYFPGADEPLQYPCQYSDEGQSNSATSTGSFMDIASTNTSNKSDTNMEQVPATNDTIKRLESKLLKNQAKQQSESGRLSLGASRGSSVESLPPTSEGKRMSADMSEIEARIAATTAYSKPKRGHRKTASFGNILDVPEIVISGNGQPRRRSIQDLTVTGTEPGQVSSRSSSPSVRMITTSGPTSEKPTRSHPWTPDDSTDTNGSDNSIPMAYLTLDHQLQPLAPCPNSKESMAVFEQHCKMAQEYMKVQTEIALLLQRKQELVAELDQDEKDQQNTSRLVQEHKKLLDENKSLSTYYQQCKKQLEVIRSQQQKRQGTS

off-target kinases [2] = target: off-target kinases (Homo sapiens, UniProt P10721, D816H); details: KIT D816H, LanthaScreen Binding
off-target kinases [3] = target: off-target kinases (Homo sapiens, UniProt P05129); details: PRKCG (PKC gamma); Cmpd1 1000 μM; ATP Km app; ZLYTE
off-target kinases [4] = target: off-target kinases (Homo sapiens, UniProt P08922); details: ROS1, ZLYTE, ATP Km app
off-target kinases [5] = target: off-target kinases (Homo sapiens, UniProt Q02750, S218D/S222D); details: MAP2K1 (MEK1) S218D S222D (mutant), LanthaScreen Binding
off-target kinases (Homo sapiens, UniProt Q02750, S218D/S222D), sequence (Q02750 whole entry S218D/S222D): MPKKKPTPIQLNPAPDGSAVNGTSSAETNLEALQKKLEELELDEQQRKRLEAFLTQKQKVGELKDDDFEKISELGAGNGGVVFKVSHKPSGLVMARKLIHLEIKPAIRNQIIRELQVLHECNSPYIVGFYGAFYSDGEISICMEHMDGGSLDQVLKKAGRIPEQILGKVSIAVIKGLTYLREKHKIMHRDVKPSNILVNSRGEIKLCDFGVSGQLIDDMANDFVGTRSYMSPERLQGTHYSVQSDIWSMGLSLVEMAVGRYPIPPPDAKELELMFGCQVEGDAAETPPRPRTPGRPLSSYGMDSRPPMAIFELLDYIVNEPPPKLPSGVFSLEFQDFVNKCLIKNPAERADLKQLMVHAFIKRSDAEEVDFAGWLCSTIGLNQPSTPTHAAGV

off-target kinases (Homo sapiens, UniProt P10721, D816H), sequence (P10721 26-976 D816H): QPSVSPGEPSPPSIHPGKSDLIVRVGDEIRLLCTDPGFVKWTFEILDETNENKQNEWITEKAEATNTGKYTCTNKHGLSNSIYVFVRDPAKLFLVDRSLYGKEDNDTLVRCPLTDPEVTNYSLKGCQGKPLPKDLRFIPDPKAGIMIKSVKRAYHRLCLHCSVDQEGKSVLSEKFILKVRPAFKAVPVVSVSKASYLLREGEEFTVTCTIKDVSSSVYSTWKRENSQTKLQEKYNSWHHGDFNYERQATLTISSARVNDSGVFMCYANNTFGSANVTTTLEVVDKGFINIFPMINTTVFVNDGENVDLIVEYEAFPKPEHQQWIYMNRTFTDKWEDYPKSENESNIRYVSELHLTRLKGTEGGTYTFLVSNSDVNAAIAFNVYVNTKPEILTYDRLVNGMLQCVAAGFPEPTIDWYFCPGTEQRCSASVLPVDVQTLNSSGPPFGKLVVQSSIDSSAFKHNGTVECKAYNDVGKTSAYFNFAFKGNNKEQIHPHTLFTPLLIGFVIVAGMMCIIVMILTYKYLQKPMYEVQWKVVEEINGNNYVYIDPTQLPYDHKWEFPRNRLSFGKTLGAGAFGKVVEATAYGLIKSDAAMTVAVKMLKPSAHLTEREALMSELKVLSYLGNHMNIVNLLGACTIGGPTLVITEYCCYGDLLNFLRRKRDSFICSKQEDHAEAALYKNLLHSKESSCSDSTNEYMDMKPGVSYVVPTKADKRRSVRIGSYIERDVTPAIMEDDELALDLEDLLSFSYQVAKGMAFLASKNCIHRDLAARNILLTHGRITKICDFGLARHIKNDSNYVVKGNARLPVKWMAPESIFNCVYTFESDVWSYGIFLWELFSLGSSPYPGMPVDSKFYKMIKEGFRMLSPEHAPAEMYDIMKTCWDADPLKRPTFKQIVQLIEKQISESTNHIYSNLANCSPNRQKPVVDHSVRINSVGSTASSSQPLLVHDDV
off-target kinases (Homo sapiens, UniProt P08922), sequence (P08922 28-2347): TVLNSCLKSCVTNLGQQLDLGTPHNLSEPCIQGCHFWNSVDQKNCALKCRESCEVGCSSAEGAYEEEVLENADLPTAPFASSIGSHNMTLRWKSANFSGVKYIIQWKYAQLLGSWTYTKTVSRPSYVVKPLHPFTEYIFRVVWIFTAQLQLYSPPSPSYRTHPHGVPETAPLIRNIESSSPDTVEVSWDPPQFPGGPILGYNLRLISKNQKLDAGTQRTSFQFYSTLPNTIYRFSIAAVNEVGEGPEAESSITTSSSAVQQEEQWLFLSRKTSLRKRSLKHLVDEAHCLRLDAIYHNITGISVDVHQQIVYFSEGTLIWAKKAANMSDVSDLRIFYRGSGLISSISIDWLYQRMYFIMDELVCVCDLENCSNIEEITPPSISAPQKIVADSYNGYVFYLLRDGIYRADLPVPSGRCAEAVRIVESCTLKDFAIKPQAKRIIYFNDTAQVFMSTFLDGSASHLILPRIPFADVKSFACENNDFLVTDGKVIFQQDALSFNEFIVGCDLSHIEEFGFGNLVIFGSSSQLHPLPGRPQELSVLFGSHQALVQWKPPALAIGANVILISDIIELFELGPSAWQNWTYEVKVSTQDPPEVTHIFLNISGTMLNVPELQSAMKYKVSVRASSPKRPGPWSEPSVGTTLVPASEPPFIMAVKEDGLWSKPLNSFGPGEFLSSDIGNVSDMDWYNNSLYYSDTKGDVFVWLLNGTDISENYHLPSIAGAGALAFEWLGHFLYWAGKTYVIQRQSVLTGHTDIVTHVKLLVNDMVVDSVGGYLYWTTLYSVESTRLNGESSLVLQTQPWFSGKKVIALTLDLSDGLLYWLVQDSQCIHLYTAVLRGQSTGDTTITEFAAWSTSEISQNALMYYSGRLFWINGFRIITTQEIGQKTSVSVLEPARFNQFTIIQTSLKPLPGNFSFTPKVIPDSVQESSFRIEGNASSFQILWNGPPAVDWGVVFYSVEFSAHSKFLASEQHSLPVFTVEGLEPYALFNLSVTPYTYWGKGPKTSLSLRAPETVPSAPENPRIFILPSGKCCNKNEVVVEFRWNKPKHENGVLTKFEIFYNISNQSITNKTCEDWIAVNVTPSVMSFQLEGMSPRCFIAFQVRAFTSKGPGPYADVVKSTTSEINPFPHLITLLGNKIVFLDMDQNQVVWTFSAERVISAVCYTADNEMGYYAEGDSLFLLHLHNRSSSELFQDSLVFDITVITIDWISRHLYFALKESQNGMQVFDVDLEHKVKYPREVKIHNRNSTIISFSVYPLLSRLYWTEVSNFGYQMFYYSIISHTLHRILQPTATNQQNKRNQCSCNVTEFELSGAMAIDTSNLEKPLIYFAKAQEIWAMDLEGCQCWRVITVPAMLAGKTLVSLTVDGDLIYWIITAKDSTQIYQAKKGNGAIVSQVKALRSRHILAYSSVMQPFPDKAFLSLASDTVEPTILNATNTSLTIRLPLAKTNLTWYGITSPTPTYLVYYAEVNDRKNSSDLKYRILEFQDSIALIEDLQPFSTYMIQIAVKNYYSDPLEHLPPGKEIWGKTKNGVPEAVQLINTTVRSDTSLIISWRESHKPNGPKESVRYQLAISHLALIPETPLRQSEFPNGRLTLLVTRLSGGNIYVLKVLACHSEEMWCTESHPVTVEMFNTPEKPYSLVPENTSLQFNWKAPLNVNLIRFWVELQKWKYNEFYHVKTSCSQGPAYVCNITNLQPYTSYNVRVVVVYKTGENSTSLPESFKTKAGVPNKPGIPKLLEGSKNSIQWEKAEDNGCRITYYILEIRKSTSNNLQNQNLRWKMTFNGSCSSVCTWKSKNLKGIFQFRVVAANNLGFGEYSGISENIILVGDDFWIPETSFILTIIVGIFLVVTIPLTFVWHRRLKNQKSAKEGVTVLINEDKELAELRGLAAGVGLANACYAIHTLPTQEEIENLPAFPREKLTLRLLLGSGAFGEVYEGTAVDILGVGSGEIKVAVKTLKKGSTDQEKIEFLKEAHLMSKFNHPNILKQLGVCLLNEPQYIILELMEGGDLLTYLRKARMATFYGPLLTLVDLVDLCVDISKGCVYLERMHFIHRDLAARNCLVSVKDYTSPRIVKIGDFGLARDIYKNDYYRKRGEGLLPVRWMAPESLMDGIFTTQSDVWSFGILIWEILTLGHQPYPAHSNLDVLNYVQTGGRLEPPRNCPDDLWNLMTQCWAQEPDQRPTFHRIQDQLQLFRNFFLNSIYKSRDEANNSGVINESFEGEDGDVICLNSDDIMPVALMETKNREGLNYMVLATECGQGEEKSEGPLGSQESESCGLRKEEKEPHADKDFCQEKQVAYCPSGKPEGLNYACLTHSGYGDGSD

Structure (SMILES): N#Cc1cc(-c2ncnc(Nc3ccc(N4CCN(C5COC5)CC4)cc3)n2)ccc1OC1CCOCC1 [Compound 1, 5-(4-((4-(4-(oxetan-3-yl)piperazin-1-yl)phenyl)amino)-1,3,5-triazin-2-yl)-2-((tetrahydro-2H-pyran-4-yl)oxy)benzonitrile]
- inhibition (off-target kinases [1]; read-out: % Inhibition 2): 22%
- inhibition (off-target kinases [1]; read-out: % Inhibition Avg): 22%
- inhibition (off-target kinases [2]; read-out: % Inhibition 1): 90%
- inhibition (off-target kinases [2]; read-out: % Inhibition 2): 94%
- inhibition (off-target kinases [2]; read-out: % Inhibition Avg): 92%
- % Inhibition 1 (off-target kinases [3]): −9%
- % Inhibition 2 (off-target kinases [3]): −1%
- % Inhibition Avg (off-target kinases [3]): −5%
- inhibition (off-target kinases [4]; read-out: % Inhibition 1): 30%
- inhibition (off-target kinases [4]; read-out: % Inhibition 2): 26%
- inhibition (off-target kinases [4]; read-out: % Inhibition Avg): 28%
- inhibition (off-target kinases [5]; read-out: % Inhibition 1): 10%
- inhibition (off-target kinases [5]; read-out: % Inhibition 2): 7%
- inhibition (off-target kinases [5]; read-out: % Inhibition Avg): 8%
